Assay results reported in PMC10598577 (JACS Au, 2023).
Entries after “also recorded” stand apart in the source; their conditions may differ.

Legend:
wild type MopR [1] = biological target: T1, wild type MopR (Acinetobacter guillouiae, UniProt Q43965); settings: wild type MopR sensor domain; previous ITC studies; cited from earlier work
T1 sequence (Q43965 1-229): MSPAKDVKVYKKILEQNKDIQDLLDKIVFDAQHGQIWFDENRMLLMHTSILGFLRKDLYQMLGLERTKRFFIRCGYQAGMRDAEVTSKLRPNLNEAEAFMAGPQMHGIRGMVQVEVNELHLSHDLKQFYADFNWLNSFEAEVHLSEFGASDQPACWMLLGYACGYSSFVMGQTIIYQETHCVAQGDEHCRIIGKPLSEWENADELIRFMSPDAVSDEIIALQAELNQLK

MopR M100K_V116D = MopR M100K_V116D (Acinetobacter guillouiae, UniProt Q43965, M100K/V116D); settings: salt bridge mutant M100K_V116D, ligand phenol
MopR W134A = settings: cited from earlier work
MopR M100Q_L119N = MopR M100Q_L119N (Acinetobacter guillouiae, UniProt Q43965, L119N/M100Q); assay: biochemical
wild type MopR [2] = biological target: T1, wild type MopR; assay: biochemical
MopR M100V_L119V = MopR M100V_L119V (Acinetobacter guillouiae, UniProt Q43965, L119V/M100V); assay: biochemical
MopR M100Q_V116N = MopR M100Q_V116N (Acinetobacter guillouiae, UniProt Q43965, M100Q/V116N); assay: biochemical
MopR M100K_L119D = settings: salt bridge mutant M100K_L119D, ligand phenol
MopR H106A = settings: cited from earlier work
[3] = system: MopR second barrier residues (F99, F132) mutated to leucine; settings: F99, F132 mutated to nonaromatic leucine, ligand phenol

Compound | ligand selection profile of MopR (binding, in words) (wild type MopR [1]) | binding (ITC) (MopR M100K_V116D) | Kd (MopR W134A) [nM] | Kd (MopR M100Q_L119N) [nM] | Kd (wild type MopR [2]) [nM] | Kd (MopR M100V_L119V) [nM] | Kd (MopR M100Q_V116N) [nM] | binding (ITC) (MopR M100K_L119D) | Kd (MopR H106A) [nM] | binding affinity (ITC) [3]
c1ccccc1 [benzene] | significantly decreased affinity; also recorded: little or negligible binding |  |  |  |  |  |  |  |  | 
Oc1ccccc1 [phenol] |  | no detectable binding | 2870 ± 10 | 2700 ± 500 | 460 ± 60 | 450 ± 60 | 4350 ± 70 | no detectable binding | 7860 ± 10 | significantly decrease the binding affinity
